Reference: patent US20090311217A1, “3-SUBSTITUTED-1H-INDOLE COMPOUNDS, THEIR USE AS MTOR KINASE AND PI3 KINASE INHIBITORS, AND THEIR SYNTHESES” (priority 2008, published 2009)

Legend:
Format in all cases: biochemical
[1] = biological target: PI3K-alpha (Homo sapiens, UniProt P42336); experiment: PI3K-alpha fluorescence polarization assay; conditions: read-out: PI3Kα Avg. IC50
[2] = biological target: T1, human TOR (Homo sapiens, UniProt P42345); experiment: mTOR enzyme assay (DELFIA, His6-S6K substrate); conditions: read-out: mTOR Kinase Avg. IC50
T1 construct: FLAG

[3] = biological target: PI3K-gamma (Homo sapiens, UniProt P48736); experiment: PI3K-gamma fluorescence polarization assay; conditions: PI3Kγ Avg. IC50
Procedure, shortened: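 Reactions used 5 ng enzyme with 2.5 μM diC8-PI(4,5)P2 and 25 μM ATP in 5 mM HEPES pH 7, 2.5 mM MgCl2, run 1 h at 25° C. After an EDTA quench (10 mM), 100 nM GST-GRP1 PH domain and 5 nM BODIPY-TMR-IP4 were added and fluorescence polarization was read.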

Chain of PI3K-gamma (P48736 whole entry, species assumed, the tested form may be a part): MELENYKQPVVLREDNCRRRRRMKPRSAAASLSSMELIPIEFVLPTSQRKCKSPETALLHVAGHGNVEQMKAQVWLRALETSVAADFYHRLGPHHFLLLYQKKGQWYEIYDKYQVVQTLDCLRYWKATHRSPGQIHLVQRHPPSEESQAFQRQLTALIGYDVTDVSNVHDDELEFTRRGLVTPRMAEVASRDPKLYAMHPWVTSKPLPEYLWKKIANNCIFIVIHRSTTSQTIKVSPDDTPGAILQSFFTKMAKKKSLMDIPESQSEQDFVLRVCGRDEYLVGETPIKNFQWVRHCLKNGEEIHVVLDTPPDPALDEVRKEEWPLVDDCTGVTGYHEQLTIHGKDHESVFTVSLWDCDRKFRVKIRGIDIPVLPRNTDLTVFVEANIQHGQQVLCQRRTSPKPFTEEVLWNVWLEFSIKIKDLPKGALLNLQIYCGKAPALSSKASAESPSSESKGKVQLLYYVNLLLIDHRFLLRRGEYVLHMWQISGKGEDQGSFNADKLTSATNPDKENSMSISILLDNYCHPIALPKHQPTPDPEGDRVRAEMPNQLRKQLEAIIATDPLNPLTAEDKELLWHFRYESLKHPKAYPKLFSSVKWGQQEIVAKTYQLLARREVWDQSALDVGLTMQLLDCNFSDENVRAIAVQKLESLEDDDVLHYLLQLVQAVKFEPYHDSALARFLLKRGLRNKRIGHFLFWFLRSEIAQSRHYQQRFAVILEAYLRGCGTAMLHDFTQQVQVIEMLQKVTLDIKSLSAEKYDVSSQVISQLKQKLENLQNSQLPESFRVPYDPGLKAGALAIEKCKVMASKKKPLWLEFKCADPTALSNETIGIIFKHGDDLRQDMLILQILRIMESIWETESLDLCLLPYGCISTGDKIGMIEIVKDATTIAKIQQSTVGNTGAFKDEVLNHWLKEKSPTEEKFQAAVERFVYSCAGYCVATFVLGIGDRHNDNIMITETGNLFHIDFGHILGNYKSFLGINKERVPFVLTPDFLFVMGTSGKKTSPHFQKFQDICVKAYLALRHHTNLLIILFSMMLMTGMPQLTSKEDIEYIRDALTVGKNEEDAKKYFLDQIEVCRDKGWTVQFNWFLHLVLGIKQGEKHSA
Chain of PI3K-alpha (P42336 whole entry, species assumed): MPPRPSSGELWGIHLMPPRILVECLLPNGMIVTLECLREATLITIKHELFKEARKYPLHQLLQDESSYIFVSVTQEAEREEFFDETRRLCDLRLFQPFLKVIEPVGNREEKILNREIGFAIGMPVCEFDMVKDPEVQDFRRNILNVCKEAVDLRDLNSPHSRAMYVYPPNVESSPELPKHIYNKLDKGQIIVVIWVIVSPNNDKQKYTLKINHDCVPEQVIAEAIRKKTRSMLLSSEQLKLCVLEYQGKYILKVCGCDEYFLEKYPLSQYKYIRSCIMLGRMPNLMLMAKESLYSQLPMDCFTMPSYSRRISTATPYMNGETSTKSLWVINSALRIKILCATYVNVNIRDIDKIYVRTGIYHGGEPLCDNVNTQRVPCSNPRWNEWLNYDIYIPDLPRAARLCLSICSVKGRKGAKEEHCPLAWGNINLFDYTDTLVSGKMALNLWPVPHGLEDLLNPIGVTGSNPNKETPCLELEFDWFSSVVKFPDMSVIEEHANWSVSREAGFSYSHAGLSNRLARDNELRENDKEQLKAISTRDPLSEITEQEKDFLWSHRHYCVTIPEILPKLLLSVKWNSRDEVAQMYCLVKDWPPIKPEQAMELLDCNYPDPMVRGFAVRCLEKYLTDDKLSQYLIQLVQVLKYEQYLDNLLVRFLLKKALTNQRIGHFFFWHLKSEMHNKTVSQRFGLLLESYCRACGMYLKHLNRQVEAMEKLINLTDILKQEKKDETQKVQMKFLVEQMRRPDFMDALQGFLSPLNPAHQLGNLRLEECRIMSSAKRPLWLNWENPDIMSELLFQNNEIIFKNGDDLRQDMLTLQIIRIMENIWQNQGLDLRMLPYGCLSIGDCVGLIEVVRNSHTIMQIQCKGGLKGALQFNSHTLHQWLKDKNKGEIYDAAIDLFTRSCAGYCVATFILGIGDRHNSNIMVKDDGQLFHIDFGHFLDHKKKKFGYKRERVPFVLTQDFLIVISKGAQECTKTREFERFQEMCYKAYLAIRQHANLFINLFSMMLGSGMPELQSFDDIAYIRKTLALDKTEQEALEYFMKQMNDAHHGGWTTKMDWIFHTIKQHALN
Chain of PI3K-alpha (P27986 whole entry partner, species assumed): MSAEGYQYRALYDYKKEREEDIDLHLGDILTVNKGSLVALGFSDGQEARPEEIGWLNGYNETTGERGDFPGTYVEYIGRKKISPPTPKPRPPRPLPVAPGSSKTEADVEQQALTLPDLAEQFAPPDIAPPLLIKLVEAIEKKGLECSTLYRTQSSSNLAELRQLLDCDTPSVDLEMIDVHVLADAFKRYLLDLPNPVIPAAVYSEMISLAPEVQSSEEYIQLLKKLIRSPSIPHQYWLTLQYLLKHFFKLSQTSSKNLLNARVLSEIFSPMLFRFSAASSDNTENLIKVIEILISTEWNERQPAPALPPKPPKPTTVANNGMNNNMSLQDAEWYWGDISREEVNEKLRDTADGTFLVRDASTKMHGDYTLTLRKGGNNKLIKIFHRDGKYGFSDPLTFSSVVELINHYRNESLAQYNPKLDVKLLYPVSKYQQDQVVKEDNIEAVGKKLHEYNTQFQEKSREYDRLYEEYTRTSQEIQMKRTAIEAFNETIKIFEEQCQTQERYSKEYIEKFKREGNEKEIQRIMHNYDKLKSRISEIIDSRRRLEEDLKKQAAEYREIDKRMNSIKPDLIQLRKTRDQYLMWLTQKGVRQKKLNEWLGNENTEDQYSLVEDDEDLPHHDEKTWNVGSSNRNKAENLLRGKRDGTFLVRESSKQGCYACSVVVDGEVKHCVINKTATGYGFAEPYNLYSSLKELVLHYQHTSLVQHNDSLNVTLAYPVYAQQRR

Row | Structure (SMILES) | IC50 [1] [nM] | IC50 [2] [nM] | IC50 [3] [nM]
1 | CN1CCN(c2cccc3c2c(/C=C2\Oc4cc(O)cc(O)c4C2=O)cn3C)CC1 [Example 439, (2Z)-4,6-dihydroxy-2-{[1-methyl-4-(4-methylpiperazin-1-yl)-1H-indol-3-yl]methylene}-1-benzofuran-3(2H)-one] | 4280 | 33.8 | > 10000
2 | Cn1cc(/C=C2\Oc3cccc(O)c3C2=O)c2ccccc21 [Example 441, (2Z)-4-Hydroxy-2-[(1-methyl-1H-indol-3-yl)methylene]benzofuran-3(2H)-one] | > 10000 | > 20000 | > 10000
3 | Cn1c(-c2ccccc2)c(/C=C2\Oc3cccc(O)c3C2=O)c2ccccc21 [Example 442, (2Z)-4-Hydroxy-2-[(1-methyl-2-phenyl-1H-indol-3-yl)methylene]benzofuran-3(2H)-one] | > 5100 | > 20000 | > 5100
4 | Cn1cc(/C=C2\Oc3cc(O)ccc3C2=O)c2c(-c3ccccc3)cccc21 [Example 443, (2Z)-6-Hydroxy-2-((1-methyl-4-phenyl-1H-indol-3-yl)methylene)benzofuran-3(2H)-one] | > 5100 | 1240 | > 5100
5 | COc1ccc2c(c1)c(/C=C1\Oc3cc(O)cc(O)c3C1=O)c(C1CC1)n2CC(=O)N(C)C [Example 444, 2-{2-Cyclopropyl-3-[(Z)-(4,6-dihydroxy-3-oxo-1-benzofuran-2(3H)-ylidene)methyl]-5-methoxy-1H-indol-1-yl}-N,N-dimethylacetamide] | 65.5 | 12.3 | 100
6 | COc1ccc2c(c1)c(/C=C1\Oc3cc(O)cc(O)c3C1=O)c(C1CCC1)n2CCN1CCN(C)CC1 [Example 446, (2Z)-2-({2-Cyclobutyl-5-methoxy-1-[2-(4-methylpiperazin-1-yl)ethyl]-1H-indol-3-yl}methylene)-4,6-dihydroxy-1-benzofuran-3(2H)-one] | 3.5 | 3.75 | 81
7 | COc1ccc2c(c1)c(/C=C1\Oc3cc(O)cc(O)c3C1=O)c(C1CCCCC1)n2CCN1CCN(C)CC1 [Example 447, (2Z)-2-({2-Cyclohexyl-5-methoxy-1-[2-(4-methylpiperazin-1-yl)ethyl]-1H-indol-3-yl}methylene)-4,6-dihydroxy-1-benzofuran-3(2H)-one] | 1.7 | 1.3 | 105
8 | COc1ccc2c(c1)c(/C=C1\Oc3cc(O)c(Cl)cc3C1=O)c(C)n2CCCN(C)C [Example 448, (2Z)-5-Chloro-2-({1-[3-(dimethylamino)propyl]-5-methoxy-2-methyl-1H-indol-3-yl}methylene)-6-hydroxy-1-benzofuran-3(2H)-one] | 142 | > 20000 | 5130
9 | COc1ccc2c(c1)c(/C=C1\Oc3c(ccc(O)c3F)C1=O)c(C)n2CCCN(C)C [Example 449, (2Z)-2-({1-[3-(Dimethylamino)propyl]-5-methoxy-2-methyl-1H-indol-3-yl}methylene)-7-fluoro-6-hydroxy-1-benzofuran-3(2H)-one] | 166 | > 20000 | > 11000
10 | COc1ccc2c(c1)c(/C=C1\Oc3c(ccc(O)c3Cl)C1=O)c(C)n2CCN1CCN(C)CC1 [Example 451, (2Z)-7-Chloro-6-hydroxy-2-({5-methoxy-2-methyl-1-[2-(4-methylpiperazin-1-yl)ethyl]-1H-indol-3-yl}methylene)-1-benzofuran-3(2H)-one] | 375 | > 20000 | 7740
11 | COc1ccc2c(c1)c(/C=C1\Oc3cc(O)ccc3C1=O)c(C)n2CCN1CCCC1 [Example 452, (2Z)-6-Hydroxy-2-{[5-methoxy-2-methyl-1-(2-pyrrolidin-1-ylethyl)-1H-indol-3-yl]methylene}-1-benzofuran-3(2H)-one] | 49.5 | 1950 | 990
12 | COc1ccc2c(c1)c(/C=C1\Oc3cc(O)ccc3C1=O)c(C)n2CCN1CCCC1C (stereo not drawn) [Example 453, (2Z)-6-Hydroxy-2-({5-methoxy-2-methyl-1-[2-(2-methylpyrrolidin-1-yl)ethyl]-1H-indol-3-yl}methylene)-1-benzofuran-3(2H)-one] | 49.5 | 2200 | 550
13 | COc1ccc2c(c1)c(/C=C1\Oc3cc(O)ccc3C1=O)c(C)n2CCN1CCCCC1 [Example 454, (2Z)-6-Hydroxy-2-{[5-methoxy-2-methyl-1-(2-piperidin-1-ylethyl)-1H-indol-3-yl]methylene}-1-benzofuran-3(2H)-one] | 32 | 1300 | 517
14 | COc1ccc2c(c1)c(/C=C1\Oc3cc(O)ccc3C1=O)c(C)n2CCN1CCC(C)CC1 [Example 455, (2Z)-6-Hydroxy-2-({5-methoxy-2-methyl-1-[2-(4-methylpiperidin-1-yl)ethyl]-1H-indol-3-yl}methylene)-1-benzofuran-3(2H)-one] | 39 | 1400 | 612
15 | COc1ccc2c(c1)c(/C=C1\Oc3cc(O)c(Cl)cc3C1=O)c(C)n2CCN1CCN(C)CC1 [Example 456, (2Z)-5-Chloro-6-hydroxy-2-({5-methoxy-2-methyl-1-[2-(4-methylpiperazin-1-yl)ethyl]-1H-indol-3-yl}methylene)-1-benzofuran-3(2H)-one] | 90.5 | > 20000 | 4600
16 | COc1ccc2c(c1)c(/C=C1\Oc3c(ccc(O)c3F)C1=O)c(C)n2CCN1CCN(C)CC1 [Example 457, (2Z)-7-Fluoro-6-hydroxy-2-({5-methoxy-2-methyl-1-[2-(4-methylpiperazin-1-yl)ethyl]-1H-indol-3-yl}methylene)-1-benzofuran-3(2H)-one] | 74 | > 20000 | 5050
17 | COc1ccc2c(c1)c(/C=C1\Oc3cc(O)c(C)cc3C1=O)c(C)n2CCN1CCN(C)CC1 [Example 458, (2Z)-6-Hydroxy-2-({5-methoxy-2-methyl-1-[2-(4-methylpiperazin-1-yl)ethyl]-1H-indol-3-yl}methylene)-5-methyl-1-benzofuran-3(2H)-one] | 134 | > 20000 | 4350
18 | COc1ccc2c(c1)c(/C=C1\Oc3cc(O)c(C)cc3C1=O)c(C)n2CCCN(C)C [Example 459, (2Z)-2-({1-[3-(Dimethylamino)propyl]-5-methoxy-2-methyl-1H-indol-3-yl}methylene)-6-hydroxy-5-methyl-1-benzofuran-3(2H)-one] | 191 | > 20000 | 6690

Next, values leading:

Row | IC50 [1] [nM] | IC50 [2] [nM] | IC50 [3] [nM] | Structure (SMILES)
19 | 18 | 6500 | 1380 | COc1ccc2c(c1)c(/C=C1\Oc3cc(O)ccc3C1=O)c(C)n2CCCN1CCC(C)CC1 [Example 460, (2Z)-6-Hydroxy-2-({5-methoxy-2-methyl-1-[3-(4-methylpiperidin-1-yl)propyl]-1H-indol-3-yl}methylene)-1-benzofuran-3(2H)-one]
20 | 19.5 | 12500 | 1060 | COc1ccc2c(c1)c(/C=C1\Oc3cc(O)ccc3C1=O)c(C)n2CCCN1CCCC1C (stereo not drawn) [Example 461, (2Z)-6-Hydroxy-2-({5-methoxy-2-methyl-1-[3-(2-methylpyrrolidin-1-yl)propyl]-1H-indol-3-yl}methylene)-1-benzofuran-3(2H)-one]
21 | 21.5 | 635 | 1050 | COc1ccc2c(c1)c(/C=C1\Oc3cc(O)ccc3C1=O)c(C1CC1)n2CCCN(C)C [Example 462, (2Z)-2-({2-Cyclopropyl-1-[3-(dimethylamino)propyl]-5-methoxy-1H-indol-3-yl}methylene)-6-hydroxy-1-benzofuran-3(2H)-one]
22 | 51.5 | 2000 | 971 | COc1ccc2c(c1)c(/C=C1\Oc3cc(O)cc(O)c3C1=O)c(-c1cncnc1)n2CCN1CCN(C)CC1 [Example 463, (2Z)-4,6-Dihydroxy-2-({5-methoxy-1-[2-(4-methylpiperazin-1-yl)ethyl]-2-pyrimidin-5-yl-1H-indol-3-yl}methylene)-1-benzofuran-3(2H)-one]
23 | 13.5 | 37.5 | 1450 | COc1ccc2c(c1)c(/C=C1\Oc3cc(O)cc(C)c3C1=O)c(C1CC1)n2CCN1CCN(C)CC1 [Example 464, (2Z)-2-({2-Cyclopropyl-5-methoxy-1-[2-(4-methylpiperazin-1-yl)ethyl]-1H-indol-3-yl}methylene)-6-hydroxy-4-methyl-1-benzofuran-3(2H)-one]
24 | 29.5 | > 20000 | 475 | COc1ccc2c(c1)c(/C=C1\Oc3cc(O)cc(F)c3C1=O)c(C)n2CCCN(C)C [Example 465, (2Z)-2-({1-[3-(Dimethylamino)propyl]-5-methoxy-2-methyl-1H-indol-3-yl}methylene)-4-fluoro-6-hydroxy-1-benzofuran-3(2H)-one]
25 | 73 | 7500 | 1270 | COc1ccc2c(c1)c(/C=C1\Oc3cc(O)cc(Cl)c3C1=O)c(C)n2CCCN(C)C [Example 466, (2Z)-4-Chloro-2-({1-[3-(dimethylamino)propyl]-5-methoxy-2-methyl-1H-indol-3-yl}methylene)-6-hydroxy-1-benzofuran-3(2H)-one]
26 | 50.5 | 425 | 1790 | COc1ccc2c(c1)c(/C=C1\Oc3cc(O)cc(Cl)c3C1=O)c(C)n2CCN1CCN(C)CC1 [Example 467, (2Z)-4-Chloro-6-hydroxy-2-({5-methoxy-2-methyl-1-[2-(4-methylpiperazin-1-yl)ethyl]-1H-indol-3-yl}methylene)-1-benzofuran-3(2H)-one]
27 | 48.5 | 2200 | 3200 | COc1ccc2c(c1)c(/C=C1\Oc3cc(O)cc(C)c3C1=O)c(C)n2CCCN(C)C [Example 468, (2Z)-2-({1-[3-(Dimethylamino)propyl]-5-methoxy-2-methyl-1H-indol-3-yl}methylene)-6-hydroxy-4-methyl-1-benzofuran-3(2H)-one]
